Data as given in patent publication EP0783890A1, “Use of 2-methyl-4-(4-methyl-1-piperazinyl)-10H-thieno(2,3-b)(1,5)benzodiazepine for the treatment of fungal dermatitis” (ELI LILLY AND COMPANY, priority 1995, dated 1997).

Tests used:
[1] = test system: conditioned avoidance response; details: rats; cited from earlier work
[2] = detection of radiolabelled compound in saliva; assay type: in vivo
Protocol: For example, in the treatment of adult humans, dosages of from about 5 to 20 mg per day may be used. A once a day dosage is normally sufficient, although divided doses may be administered. For treatment of fungal dermatitis in a human, a dose range of from about […], preferably 5 to 20 mg per day is suitable.

[3] = test system: apomorphine-induced climbing behavior; details: mice; cited from earlier work
[4] = target: T1, 5-HT1C receptor (Homo sapiens, UniProt P28335); details: in vitro; cited from earlier work
T1 sequence (P28335 33-458): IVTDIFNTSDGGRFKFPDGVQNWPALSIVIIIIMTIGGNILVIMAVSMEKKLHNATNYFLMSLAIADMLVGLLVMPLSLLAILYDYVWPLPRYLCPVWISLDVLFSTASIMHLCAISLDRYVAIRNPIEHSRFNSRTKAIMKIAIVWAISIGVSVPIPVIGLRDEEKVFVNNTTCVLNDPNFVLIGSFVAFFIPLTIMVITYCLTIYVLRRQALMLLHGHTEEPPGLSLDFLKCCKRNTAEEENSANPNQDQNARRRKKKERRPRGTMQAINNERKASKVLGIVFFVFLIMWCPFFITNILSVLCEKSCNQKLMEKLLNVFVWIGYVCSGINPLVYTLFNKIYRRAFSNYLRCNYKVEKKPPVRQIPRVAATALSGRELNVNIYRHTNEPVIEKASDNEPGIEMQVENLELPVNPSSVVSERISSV

[5] = test system: apomorphine-induced hypothermia; details: mice; cited from earlier work
[6] = double-blind, randomized, placebo and haloperidol-controlled clinical trial: occurrence of fungal dermatitis; assay type: in vivo; details: 15 +/-2.5 mg/day vs haloperidol (15 +/- 5 mg/day), double-blind extension treatment phase, human subjects
Protocol: Such effectiveness for the treatment, amelioration of fungal dermatitis was shown in the following clinical trial:
The study was a double-blind, randomized, parallel, placebo and haloperidol-controlled study of 55 human subjects. The study was conducted in 23 study centers throughout the United States and Canada. […] The acute phase lasted for 6 weeks with evaluations performed weekly followed by a double-blind extension phase of at least one year.

Cc1cc2c(s1)Nc1ccccc1N=C2N1CCN(C)CC1 [2-methyl-4-(4-methyl-1-piperazinyl)-10H-thieno[2,3-b][1,5]benzodiazepine]
conditioned avoidance response [1]: inhibits
detection in the saliva [2]: can be detected in the saliva
apomorphine-induced climbing behavior [3]: antagonized
activity at the 5-HT1C receptor [4]: active
apomorphine-induced hypothermia [5]: antagonized
occurrence of fungal dermatitis compared with haloperidol [6]: statistically significantly less frequently
